Assay results taken from article PMC11151938 (Nature, 2024).

Assays:
Ripk3−/− MEFs = assay: RIPK1 kinase-driven cell death in Ripk3−/− MEFs; type: cell-based, mouse; conditions: TNFα + TAK1 inhibitor
RIPK3 [1] = conditions: cited from earlier work
RIPK3 [2] = molecular target: T1, RIPK3 (Homo sapiens, UniProt Q9Y572); conditions: cited from earlier work
[3] = test system: primary MEFs infected with PR8; assay: IAV-induced necroptosis in primary MEFs; type: cell-based, mouse; conditions: PR8 MOI 2, zVAD 50 μM
influenza = conditions: mice and humans ref 36, 37; cited from earlier work
necroptosis in cells = assay: Necroptosis blockade in cells; type: cell-based; conditions: read-out: blocking necroptosis in cells IC50
RIPK3 [4] = molecular target: T1, RIPK3; assay: In vitro RIPK3 kinase assay; type: biochemical
[5] = test system: panel of 90 non-mutant human kinases; conditions: FDA-approved TKIs, comparison values; cited from earlier work

T1 sequence (Q9Y572 1-313): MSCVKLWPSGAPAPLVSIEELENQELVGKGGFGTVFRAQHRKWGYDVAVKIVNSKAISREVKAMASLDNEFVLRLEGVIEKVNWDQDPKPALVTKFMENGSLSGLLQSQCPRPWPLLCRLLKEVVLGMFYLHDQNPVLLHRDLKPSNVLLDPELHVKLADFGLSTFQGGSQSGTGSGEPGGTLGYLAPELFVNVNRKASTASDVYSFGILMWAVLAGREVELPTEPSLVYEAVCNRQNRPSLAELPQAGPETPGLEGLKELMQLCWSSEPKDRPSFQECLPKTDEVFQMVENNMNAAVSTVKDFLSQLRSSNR

Question: For `N#Cc1cc(N2CCC(C(=O)N3N=CC[C@H]3c3cc(F)cc(F)c3)CC2)ncn1` [GSK’547], which “activity against RIPK1 kinase-driven cell death” value (Ripk3−/− MEFs) is on record?
Answer: able to block such death

Question: For `CNC(=O)c1ccc2c(c1)ncn2-c1ccc(CC(=O)OC(C)(C)C)cc1` [GSK’840], which activity in cells (RIPK3 [1]) is on record?
Answer: unexpectedly modest activity

Question: And the “activity against recombinant RIPK3 in vitro” value (RIPK3 [2])?
Answer: potent activity

Question: For `CCCS(=O)(=O)Nc1cc(-c2cc(-c3ccc(N4CCNCC4)cc3)cnc2N)cc(F)c1OC` [CSLP37], which IAV-triggered necroptosis [3] is on record?
Answer: neither the ABL inhibitor imatinib (Gleevec) nor the selective RIPK2 inhibitor CSLP37[32] blocked IAV-triggered necroptosis

Question: With `CCOC(=O)C1=C[C@@H](OC(CC)CC)[C@H](NC(C)=O)[C@@H](N)C1` [oseltamivir] as the molecule, how does the “time of administration after infection beyond which therapeutic benefit is lost” value (influenza) read?
Answer: more than 48 h

Question: Which IC50 (necroptosis in cells) does the source give for `CCN(CC)CCOc1ccc(Nc2ncc3cc(-c4c(Cl)cccc4Cl)c(=O)n(C)c3n2)cc1` [PD166285] here?
Answer: 2880 nM

Question: What about the IC50 (RIPK3 [4]) of the same molecule?
Answer: 1080 nM

Question: For `Cc1nc(Nc2ncc(C(=O)Nc3c(C)cccc3Cl)s2)cc(N2CCN(CCO)CC2)n1` [Dasatinib], which “S(35) selectivity score” value [5] is on record?
Answer: 0.28

Question: For `CNC(=O)c1cc(Oc2ccc(NC(=O)Nc3ccc(Cl)c(C(F)(F)F)c3)cc2)ccn1` [Sorafenib], which “S(35) selectivity score” value [5] is on record?
Answer: 0.22

Question: With `Cc1ccc(NC(=O)c2ccc(CN3CCN(C)CC3)cc2)cc1Nc1nccc(-c2cccnc2)n1` [imatinib] as the molecule, how does the IAV-triggered necroptosis [3] read?
Answer: neither the ABL inhibitor imatinib (Gleevec) nor the selective RIPK2 inhibitor CSLP37[32] blocked IAV-triggered necroptosis

Question: For `CC(C)S(=O)(=O)c1ccc2nccc(Nc3ccc4scnc4c3)c2c1` [GSK’872], which activity in cells (RIPK3 [1]) is on record?
Answer: unexpectedly modest activity

Question: Which results are given for `Cc1cc(-c2cnc(N)c3c(-c4ccc5scnc5c4)csc23)n(C)n1` [GSK’843]?
Answer: activity in cells (RIPK3 [1]): unexpectedly modest activity; activity against recombinant RIPK3 in vitro (RIPK3 [2]): potent activity
